Results from article PMC3140512, “Identification of Toxoplasma gondii cAMP Dependent Protein Kinase and Its Role in the Tachyzoite Growth” (PLoS ONE, 2011).
pIC50: −log10 of the molar value.

Molecular target: T1, TgPKA-C (T. gondii PKA catalytic subunit; ToxoDB TGGT1_081170) (Toxoplasma gondii, UniProt Q58G65)
T1 construct: gene PKA2; entire ORF (343 amino acid residues), GST fusion, wheat germ cell-free expression
Assay: in vitro radiometric kinase assay ([γ-32P]ATP, Histone IIAS substrate) with purified GST-TgPKA-C
Format: biochemical

T1 sequence (Q58G65 entry or part of it): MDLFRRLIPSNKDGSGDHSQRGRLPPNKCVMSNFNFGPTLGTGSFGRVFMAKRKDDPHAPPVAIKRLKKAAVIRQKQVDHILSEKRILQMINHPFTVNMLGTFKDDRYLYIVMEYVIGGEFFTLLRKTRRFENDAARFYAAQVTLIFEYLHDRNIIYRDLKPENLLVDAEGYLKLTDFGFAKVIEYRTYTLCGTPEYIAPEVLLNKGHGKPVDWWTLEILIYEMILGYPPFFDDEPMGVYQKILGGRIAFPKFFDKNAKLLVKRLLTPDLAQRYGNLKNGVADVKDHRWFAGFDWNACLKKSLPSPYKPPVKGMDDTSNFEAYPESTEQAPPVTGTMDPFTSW

Molecule `O=S(=O)(NCCNC/C=C/c1ccc(Br)cc1)c1cccc2cnccc12` [H89, N-[2-(p-bromocinnamylamino)ethyl]-5-isoquinolinesulfonamide] has a pIC50 of 3.76.
